# Patent US20140066394A1, “Substituted 6-(Benzylamino) Purine Riboside Derivatives, Use Thereof and Compositions Containing These Derivatives” (Biopatterns, S.R.O, priority 2009, published 2014)
# System: breast carcinoma cell line MCF-7
# Assay: In vitro cytotoxicity, Calcein AM assay, MCF7
# Type: cell-based, human
# Details: 72 hours
# Description: (§1) Low cytotoxicity of the compounds is the major property determining the cosmetic use. One of the parameters used, as the basis for cytotoxicity assays, is the metabolic activity of viable cells. For example, a microtiter assay, which uses the Calcein AM, is now widely used to quantitate cell proliferation and cytotoxicity. For instance, this assay is used in drug screening programs and in chemosensitivity testing. Because only metabolically active cells cleave Calcein AM, these assays detect viable cells exclusively. The quantity of […] Calcein AM corresponds to the number of vital cells in the culture.
# (§2) Human T-lymphoblastic leukemia cell line CEM; promyelocytic HL-60 and monocytic U937 leukemias; breast carcinoma cell lines MCF-7, BT549, MDA-MB-231; glioblastoma U87MG cells; cervical carcinoma cells HELA; sarcoma cells U2OS and Saos2; hepatocellular carcinoma HepG2; mouse fibroblasts NIH3T3; mouse immortalized bone marrow macrophages B2.4 and B10A.4; P388D1 and L1210 leukemia; B16 and B16F10 melanomas; human osteosarcoma HOS; human myeloid leukemia K-562; human skin melanoma G-361 were used for routine screening of compounds. The cells were maintained in Nunc/Corning 80 cm^2 plastic tissue culture flasks and cultured in cell culture medium (DMEM with 5 g/l glucose, 2 mM glutamine, 100 U/mL penicillin, 100 μg/mL streptomycin, 10% fetal calf serum and sodium bicarbonate).
# (§3) The cell suspensions that were prepared and diluted according to the particular cell type and the expected target cell density (2.500-30.000 cells per well based on cell growth characteristics) were added by pipette ([…]) into 96/well microtiter plates. Inoculates were allowed a pre-incubation period of 24 hours at 37° C. and 5% CO2 for stabilisation. Four-fold dilutions of the intended test concentration were added at time zero in 20 μl aliquots to the microtiter plate wells. Usually, the compound tested was evaluated at six 4-fold dilutions. In routine testing, the highest well concentration was 100 μM, but it can be the matter of change dependent on the agent. All drug concentrations were examined in duplicates. Incubations of cells with the tested compounds lasted for 72 hours at 37° C., in 5% CO2 atmosphere and 100% humidity. At the end of the incubation period, the cells were assayed by using Calcein AM. Ten microliters of the stock solution were pipetted into each well and incubated for 1 hour. Fluorescence (FD) was measured with the Labsystem FIA Reader Fluoroscan Ascent (UK). The tumour cell survival (GI50) was calculated using the following equitation: TCS=(FDdrug exposed well/mean FDeontrol wells)×100%. The GI50 value, the drug concentration lethal to 50% of the tumour cells, was calculated from the obtained dose response curves.
# (§4) Zero cytotoxicity of the novel compounds is the basic prerequisite for agricultural and tumor-unrelated applications. The cytoxicity of the novel compounds was tested on a panel of cell lines of different histogenetic and species origin (Table 9). We show herein that equal activities were found in all tumour cell lines tested, however, the non-malignant cells, e.g. NIH3T3 fibroblasts and normal human lymphocytes, were resistant to 2,6-disubstituted purine ribosides induced cytotoxicity. The compounds listed in Tab. 9 can be divided into 2 groups. The first group contains “classical cytokinins” represented by 6-substituted purine ribosides (which are known in the prior art). The second group contains the novel 2,6-disubstituted derivatives of these compounds. […] GI50 for NIH3T3 fibroblasts and normal human lymphocytes was always higher than 100 μM. The novel derivatives show no toxicity to normal and tumour cells in concentrations about 100 μM and thus are more suitable for agricultural applications than “classical cytokinins” (6-substituted purine riboside derivatives).
row,SMILES,GI50 [µM]
1,"COc1cccc(CNc2ncnc3c2ncn3C2OC(CO)C(O)C2O)c1O (stereo not drawn) [2-hydroxy-3-methoxybenzylamino, reference compound]",> 100
2,"COc1ccc(CNc2ncnc3c2ncn3[C@@H]2O[C@H](CO)[C@@H](O)[C@H]2O)c(O)c1 [2-hydroxy-4-methoxybenzylamino, reference compound]",20
3,"OCC1OC(n2cnc3c(NCc4cc(Cl)ccc4O)ncnc32)C(O)C1O (stereo not drawn) [2-hydroxy-5-chlorobenzylamino, reference compound]",32
4,"OC[C@H]1O[C@@H](n2cnc3c(NCc4cc(F)ccc4O)ncnc32)[C@H](O)[C@@H]1O [2-hydroxy-5-fluorobenzylamino, reference compound]",> 100

# System: human myeloid leukemia K-562
# Assay: In vitro cytotoxicity, Calcein AM assay, K-562
# Type: cell-based
# Details: 72 hours
# Description: as §1, §2, §3, §4
row,SMILES,GI50 [µM]
1,"COc1cccc(CNc2ncnc3c2ncn3C2OC(CO)C(O)C2O)c1O (stereo not drawn) [2-hydroxy-3-methoxybenzylamino, reference compound]",> 100
2,"COc1ccc(CNc2ncnc3c2ncn3[C@@H]2O[C@H](CO)[C@@H](O)[C@H]2O)c(O)c1 [2-hydroxy-4-methoxybenzylamino, reference compound]",28
3,"OCC1OC(n2cnc3c(NCc4cc(Cl)ccc4O)ncnc32)C(O)C1O (stereo not drawn) [2-hydroxy-5-chlorobenzylamino, reference compound]",36
4,"OC[C@H]1O[C@@H](n2cnc3c(NCc4cc(F)ccc4O)ncnc32)[C@H](O)[C@@H]1O [2-hydroxy-5-fluorobenzylamino, reference compound]",> 100

# System: Human T-lymphoblastic leukemia cell line CEM
# Assay: In vitro cytotoxicity, Calcein AM assay, CEM
# Type: cell-based
# Details: 72 hours
# Description: as §1, §2, §3, §4
row,SMILES,GI50 [µM]
1,"COc1cccc(CNc2ncnc3c2ncn3C2OC(CO)C(O)C2O)c1O (stereo not drawn) [2-hydroxy-3-methoxybenzylamino, reference compound]",40
2,"COc1ccc(CNc2ncnc3c2ncn3[C@@H]2O[C@H](CO)[C@@H](O)[C@H]2O)c(O)c1 [2-hydroxy-4-methoxybenzylamino, reference compound]",0.3
3,"OCC1OC(n2cnc3c(NCc4cc(Cl)ccc4O)ncnc32)C(O)C1O (stereo not drawn) [2-hydroxy-5-chlorobenzylamino, reference compound]",2.4
4,"OC[C@H]1O[C@@H](n2cnc3c(NCc4cc(F)ccc4O)ncnc32)[C@H](O)[C@@H]1O [2-hydroxy-5-fluorobenzylamino, reference compound]",52

# System: promyelocytic HL-60 leukemia
# Assay: In vitro cytotoxicity, Calcein AM assay, HL60
# Type: cell-based, human
# Details: 72 hours
# Description: as §1, §2, §3, §4
row,SMILES,GI50 [µM]
1,"COc1cccc(CNc2ncnc3c2ncn3C2OC(CO)C(O)C2O)c1O (stereo not drawn) [2-hydroxy-3-methoxybenzylamino, reference compound]",9.5
2,"COc1ccc(CNc2ncnc3c2ncn3[C@@H]2O[C@H](CO)[C@@H](O)[C@H]2O)c(O)c1 [2-hydroxy-4-methoxybenzylamino, reference compound]",0.15
3,"OCC1OC(n2cnc3c(NCc4cc(Cl)ccc4O)ncnc32)C(O)C1O (stereo not drawn) [2-hydroxy-5-chlorobenzylamino, reference compound]",1.6
4,"OC[C@H]1O[C@@H](n2cnc3c(NCc4cc(F)ccc4O)ncnc32)[C@H](O)[C@@H]1O [2-hydroxy-5-fluorobenzylamino, reference compound]",24

# System: human skin melanoma G-361
# Assay: In vitro cytotoxicity, Calcein AM assay, G-361
# Type: cell-based
# Details: 72 hours
# Description: as §1, §2, §3, §4
row,SMILES,GI50 [µM]
1,"COc1cccc(CNc2ncnc3c2ncn3C2OC(CO)C(O)C2O)c1O (stereo not drawn) [2-hydroxy-3-methoxybenzylamino, reference compound]",> 100
2,"COc1ccc(CNc2ncnc3c2ncn3[C@@H]2O[C@H](CO)[C@@H](O)[C@H]2O)c(O)c1 [2-hydroxy-4-methoxybenzylamino, reference compound]",> 100
3,"OCC1OC(n2cnc3c(NCc4cc(Cl)ccc4O)ncnc32)C(O)C1O (stereo not drawn) [2-hydroxy-5-chlorobenzylamino, reference compound]",> 100
4,"OC[C@H]1O[C@@H](n2cnc3c(NCc4cc(F)ccc4O)ncnc32)[C@H](O)[C@@H]1O [2-hydroxy-5-fluorobenzylamino, reference compound]",> 100

# System: human osteosarcoma HOS
# Assay: In vitro cytotoxicity, Calcein AM assay, HOS
# Type: cell-based
# Details: 72 hours
# Description: as §1, §2, §3, §4
row,SMILES,GI50 [µM]
1,"COc1cccc(CNc2ncnc3c2ncn3C2OC(CO)C(O)C2O)c1O (stereo not drawn) [2-hydroxy-3-methoxybenzylamino, reference compound]",> 100
2,"COc1ccc(CNc2ncnc3c2ncn3[C@@H]2O[C@H](CO)[C@@H](O)[C@H]2O)c(O)c1 [2-hydroxy-4-methoxybenzylamino, reference compound]",> 100
3,"OCC1OC(n2cnc3c(NCc4cc(Cl)ccc4O)ncnc32)C(O)C1O (stereo not drawn) [2-hydroxy-5-chlorobenzylamino, reference compound]",> 100
4,"OC[C@H]1O[C@@H](n2cnc3c(NCc4cc(F)ccc4O)ncnc32)[C@H](O)[C@@H]1O [2-hydroxy-5-fluorobenzylamino, reference compound]",> 100
